# Tests used:
# [1] = target: reverse-transcriptase of mouse Sarcoma virus (Moloney murine leukemia virus, UniProt P03355); test: Effect for inhibiting reverse-transcriptase of mouse Sarcoma virus; assay type: biochemical; conditions: for Percent inhibition (%): 300 μg/ml, virus protein (MLV-moloney), 37° C. 60 minutes; for inhibition at 300 µg/mL: read-out: Percent inhibition (%)
# Method: Effect for inhibiting reverse-transcriptase of mouse Sarcoma virus.
# The effect for inhibition was determined as follows:
# Methanol solution containing each active ingredient at a concentration of 6 mg/ml.
# Solution containing 240 μg of virus protein (MLV-moloney) in 1 ml of a buffer solution of 20 mM-tris-hydrochloric acid (pH 7.8), 0.1 M-sodium chloride and 1 mM of dithiotersitol (DTT).
# Reaction medium containing 46 mM tris-hydrochloric acid (pH 8.1) 92 mM potassium chloride, 15.4 mM manganese chloride, 0.77 mM-dATP, 0.77 mM-dCTP, 0.77 mM-dGTP, 0.23 μM-3H-TTP (50 ci/mM), 7.7 mM-DTT and 0.038% NP-40.
# The reaction mixture was prepared by sequentially admixing (a) 5 μl, with (b) 30 μl and (c) 65 μl and the mixture was thoroughly mixed and kept at 0° C. for 5 minutes. Then, the reaction mixture was kept at 37° C. for 60 minutes and 1 ml of cold 10% trichloroacetic acid solution was added to the reaction mixture to stop the reaction. The mixture was kept at 0° C. for 20 minutes and an insoluble components were collected on each Whatman's paper GF/c (diameter of 2.5 cm) and washed with 5 ml of cold 5% trichloroacetic acid. The residue was dried in an oven at 80° C. and charged in a viral bottle containing 10 ml of toluene solution containing scintillator PPO-POPOP, and radioactivity was measured by a scintillation spectrometer.
# mouse = test: Acute toxicity (LD50) in mouse; assay type: in vivo
# Method: Acute toxicity of the novel streptovaricin C derivatives (I) are remarkably low level. For example, 19-O-methyl compound (I) has LD50 to mouse of more than 1000 mg/kg in intramuscular injection and more than 3000 mg/kg in oral dose.
Molecule,inhibition at 300 µg/mL [1],other results
19-O-benzyl atropisodamavaricin Fc (containing 19-O-benzyl damavaricin Fc) [Example 2],–,Percent inhibition (%) [1]: 67%
19-O-methyl-atropisodamavaricin Fc (containing 19-O-methyl damavaricin Fc) [Example 1],–,LD50 (mouse; intramuscular injection): more than 1000 mg/kg; LD50 (mouse; oral dose): more than 3000 mg/kg; Percent inhibition (%) [1]: 41%
CCOc1c(C)c(O)c2c3c1C(=O)C(C)=CC(C)(O)C(O)C(C)C(O)C1C(=O)OC(C(C)C=CC=C(C)C(=O)NC(=C(C)C3=O)C2=O)C(C)C1O (stereo not drawn) [Example 4],60%,–
CCCOc1c(C)c(O)c2c3c1C(=O)C(C)=CC(C)(O)C(O)C(C)C(O)C1C(=O)OC(C(C)C=CC=C(C)C(=O)NC(=C(C)C3=O)C2=O)C(C)C1O (stereo not drawn) [Example 5],52%,–
CCCCOc1c(C)c(O)c2c3c1C(=O)C(C)=CC(C)(O)C(O)C(C)C(O)C1C(=O)OC(C(C)C=CC=C(C)C(=O)NC(=C(C)C3=O)C2=O)C(C)C1O (stereo not drawn) [Example 6],78%,–
CCCCCOc1c(C)c(O)c2c3c1C(=O)C(C)=CC(C)(O)C(O)C(C)C(O)C1C(=O)OC(C(C)C=CC=C(C)C(=O)NC(=C(C)C3=O)C2=O)C(C)C1O (stereo not drawn) [Example 7],52%,–
CCCCCCOc1c(C)c(O)c2c3c1C(=O)C(C)=CC(C)(O)C(O)C(C)C(O)C1C(=O)OC(C(C)C=CC=C(C)C(=O)NC(=C(C)C3=O)C2=O)C(C)C1O (stereo not drawn) [Example 8],60%,–
CCCCCCCCOc1c(C)c(O)c2c3c1C(=O)C(C)=CC(C)(O)C(O)C(C)C(O)C1C(=O)OC(C(C)C=CC=C(C)C(=O)NC(=C(C)C3=O)C2=O)C(C)C1O (stereo not drawn) [Example 10],41%,–
CCCCCCCCCCCOc1c(C)c(O)c2c3c1C(=O)C(C)=CC(C)(O)C(O)C(C)C(O)C1C(=O)OC(C(C)C=CC=C(C)C(=O)NC(=C(C)C3=O)C2=O)C(C)C1O (stereo not drawn) [Example 13],78%,–
C=CCOc1c(C)c(O)c2c3c1C(=O)C(C)=CC(C)(O)C(O)C(C)C(O)C1C(=O)OC(C(C)C=CC=C(C)C(=O)NC(=C(C)C3=O)C2=O)C(C)C1O (stereo not drawn) [Example 20],65%,–
CC1=CC=CC(C)C2OC(=O)C(C(O)C2C)C(O)C(C)C(O)C(C)(O)C=C(C)C(=O)c2c(OC3CCCCC3)c(C)c(O)c3c2C(=O)C(C)=C(NC1=O)C3=O (stereo not drawn) [Example 22],45%,–
CC(=O)COc1c(C)c(O)c2c3c1C(=O)C(C)=CC(C)(O)C(O)C(C)C(O)C1C(=O)OC(C(C)C=CC=C(C)C(=O)NC(=C(C)C3=O)C2=O)C(C)C1O (stereo not drawn) [Example 24],58%,–
CC1=CC=CC(C)C2OC(=O)C(C(O)C2C)C(O)C(C)C(O)C(C)(O)C=C(C)C(=O)c2c(OCC(=O)c3ccccc3)c(C)c(O)c3c2C(=O)C(C)=C(NC1=O)C3=O (stereo not drawn) [Example 30],50%,–

# — patent US4212881A, “Streptovaricin C derivatives” (priority 1978, dated 1980)
